# Experimental data published in patent EP4810035A1, “TREATMENT OF MODERATE TO SEVERE PLAQUE PSORIASIS” (Ganzhou Hemay Pharmaceutical, Co., Ltd, priority 2023, dated 2025).
# Key:
# [1] = test system: patients with moderate to severe chronic plaque psoriasis; assay: Clinical study on patients (Example 3), 16-week core treatment period, 36-week extension, 4-week follow-up, placebo-controlled; format: in vivo, human
# Method: This study selected patients with moderate to severe chronic plaque psoriasis as target subjects. Specific criteria were set for disease duration, severity and extent (psoriasis history ≥ 6 months, PASI score ≥ 12, sPGA score ≥ 3, and BSA ≥ 10). […] Primary efficacy endpoint: PASI-75 at week 16. […] Improvement in pruritus symptoms and changes in DLQI scores were also evaluated. The study consisted of a 16-week core treatment period, a 36-week extension treatment period and a 4-week follow-up period. Subjects in the experimental group received 60 mg BID of the compound in Example 2. During the extension treatment period, subjects in the placebo group also received 60 mg BID of the compound in Example 2.
# [2] = test system: Patients with plaque psoriasis; assay: Multicenter, randomized, double-blind, placebo-parallel controlled dose study in plaque psoriasis (Example 5); format: in vivo, human; conditions: for PASI-75 response rate (%): week 16
# Method: This was a multicenter, randomized, double-blind, placebo-parallel controlled study. A total of 216 subjects were enrolled and randomized in a 1:1:1:1 ratio into the low-dose group (15 mg BID), mid-dose group (30 mg BID), high-dose group (60 mg BID) of the investigational drug, and the placebo group for a 16-week core treatment period. Upon completion of the core treatment, subjects in the low, mid and high-dose groups maintained their original doses for a 36-week extension treatment period. Subjects in the placebo group were switched to the mid-dose group (30 mg BID) for the 36-week extension treatment after completing the core period. All subjects completed a total of 52 weeks of treatment. Subjects who completed 52 weeks of treatment or discontinued prematurely should enter a 4-week follow-up period. […]
# healthy Chinese subjects = assay: Phase I clinical study, multiple oral doses (Example 6); format: in vivo, human; conditions: multiple oral doses of 15 mg BID, 30 mg BID, 60 mg BID, 75 mg BID; 36 healthy Chinese subjects
# Method: A total of 36 healthy Chinese subjects participated in a phase I clinical study, in which multiple oral doses of 15 mg BID, 30 mg BID, 60 mg BID, 75 mg BID of the compound in Example 2, or a placebo were administered, respectively.
# [3] = test system: subjects with moderate to severe plaque psoriasis; assay: Phase III study of moderate to severe plaque psoriasis (Example 4), double-blind placebo-controlled core period and open-label extension; conditions: for HADS Anxiety Score, Mean / HADS Depression Score, Mean: Experimental group (N=211)
# Method: Tablets of the compound shown in Example 2 with a strength of 15 mg per tablet.
# Control Drug: Placebo tablets matching the investigational drug with a strength of 0 mg per tablet.
# • 1) Aged ≥ 18 years at the time of signing the Informed Consent Form (ICF), of any gender. • 2) Clinically diagnosed with stable plaque psoriasis, with a psoriasis history of ≥ 6 months (prior to randomization). • 3) The following requirements are met at screening and baseline: • a. Psoriasis Area and Severity Index (PASI) score ≥ 12; and • b. Static Physician Global Assessment (sPGA) score ≥ 3 (based on an sPGA 0-4 scale); and • c.
# The treatment period consisted of two phases: during the double-blind core treatment period, subjects received 60 mg BID of the investigational drug or placebo for 16 weeks (week 0 to week 16); during the open-label extension treatment period, all subjects received 60 mg BID of the investigational drug for 36 weeks (week 16 to week 52).
# A total of 305 subjects were enrolled (211 in the experimental group and 94 in the placebo group; including 105 T-SPOT positive subjects without active tuberculosis, 7 subjects with previously confirmed pulmonary tuberculosis, 76 subjects with a history of tuberculosis, and 1 subject with a history of tuberculous pleurisy).
# The primary efficacy endpoint was the proportion of subjects achieving PASI 75 at week 16 compared to baseline. The key secondary efficacy endpoint was an sPGA 0/1 with a reduction of ≥2 points from baseline at week 16. Other secondary efficacy endpoints included the proportion of subjects achieving PASI-90, PASI-75, PASI-50, and both PASI-75 and sPGA 0/1 with a ≥ 2-point reduction from baseline at each visit, as well as the rate of change in BSA. Clinical observation and evaluation were conducted over the 16-week core treatment period, the 36-week extension treatment period and the 4-week follow-up period. The Hospital Anxiety and Depression Scale (HADS) was used as an assessment tool to observe and evaluate the anxiety and depression status of subjects at screening, the end of the 16-week core period and 4 weeks after the last dose.
# [4] = 16-week core treatment period, 60 mg BID, N=211
# [5] = by the end of the clinical study
smiles,measurement,setting,value
"CCOc1cc([C@@H](CS(C)(=O)=O)N2C(=O)c3csc(NC(C)=O)c3C2=O)ccc1OC [Example 2, (S)-N-[5-[1-(3-ethoxy-4-methoxyphenyl)-2-(methylsulfonyl)ethyl]-4,6-dioxo-5,6-dihydro-5H-thieno[3,4-c]pyrrol-1-yl]acetamide]",deaths,[1]; 60 mg BID,No deaths occurred
same,drug-related serious adverse events,[1]; 60 mg BID,No drug-related serious adverse events occurred
same,severity of adverse events leading to discontinuation,[1]; 60 mg BID,all Grade 1 or Grade 2
same,severity of drug-related adverse events,[1]; 60 mg BID,primarily Grade 1 or Grade 2
same,"Secondary Efficacy Indicators, difference compared to the placebo group","[1]; 60 mg BID, P<0.0001",statistically significant differences
same,DLQI (LS mean),[1]; [4],5.38 points
same,PASI-90,[1]; [4],32.5%
same,tuberculosis reactivation,"[1]; T-SPOT positive but non-active TB subjects, by the end of the clinical study",no tuberculosis reactivation occurred
same,occurrences of depression or suicidal ideation,"[1]; by the end of the clinical study, any subjects",no occurrences of depression or suicidal ideation were observed
same,proportion of subjects achieving PASI-75,"[1]; week 16, 60 mg BID, N=211",53.6%
same,rate difference between the two groups (PASI-75),"[1]; week 16, Example 2 group vs placebo group",37.6%
same,Chest imaging examinations,"[1]; week 16 visit, T-SPOT positive but non-active TB subjects",no abnormalities
same,"DLQI score change from baseline, Mean",[2]; 15mg BID Group (N=54),4.9
same,PASI-50 response rate (%),[2]; 15mg BID Group (N=54),42.59%
same,PASI-75 & sPGA 0/1 score (%),[2]; 15mg BID Group (N=54),12.96%
same,PASI-90 response rate (%),[2]; 15mg BID Group (N=54),16.67%
same,sPGA 0/1 score (%),[2]; 15mg BID Group (N=54),14.81%
same,"DLQI score change from baseline, Mean",[2]; 30mg BID Group (N=54),6.1
same,PASI-50 response rate (%),[2]; 30mg BID Group (N=54),51.85%
same,PASI-75 & sPGA 0/1 score (%),[2]; 30mg BID Group (N=54),14.81%
same,PASI-90 response rate (%),[2]; 30mg BID Group (N=54),11.11%
same,sPGA 0/1 score (%),[2]; 30mg BID Group (N=54),14.81%
same,"DLQI score change from baseline, Mean",[2]; 60mg BID Group (N=54),7.1
same,PASI-50 response rate (%),[2]; 60mg BID Group (N=54),62.96%
same,PASI-75 & sPGA 0/1 score (%),[2]; 60mg BID Group (N=54),24.07%
same,PASI-90 response rate (%),[2]; 60mg BID Group (N=54),20.37%
same,sPGA 0/1 score (%),[2]; 60mg BID Group (N=54),24.07%
same,Population pharmacokinetics and exposure-response analysis,"[2]; 15, 30, 60 mg BID",the efficacy response rate increased with increasing doses
same,death events,"[2]; 15, 30, 60 mg BID",No death events occurred
same,adverse events of depression or anxiety,[2]; [5],no adverse events of depression or anxiety were reported
same,occurrences of depression or suicidal ideation,[2]; [5],no occurrences of depression or suicidal ideation were observed
same,drug-related serious adverse events,[2]; core treatment period,No drug-related serious adverse events occurred
same,Adverse events with an incidence of ≥10%,[2]; double-blind core treatment period (weeks 1 to 16),"diarrhea, nausea, headache, and fatigue"
same,"drug-related adverse events with an incidence of ≥5% in any of the low, medium or high-dose groups","[2]; double-blind core treatment period (weeks 1 to 16), 15, 30, 60 mg BID","increased triglycerides, increased lipids, diarrhea, nausea, abdominal discomfort, hyperlipidemia, headache, and fatigue"
same,severity of adverse events leading to discontinuation,[2]; in vivo,Grade 1 or Grade 2
same,PASI-75 and PASI-90 efficacy endpoints in a subject who had failed adalimumab therapy,[2]; one subject,also achieved the PASI-75 and PASI-90 efficacy endpoints
same,PASI-50 efficacy endpoint in subjects who had failed prior biologic therapy,"[2]; one subject failed adalimumab, one failed secukinumab, one failed TNF-α monoclonal antibody therapy",all achieved the PASI-50 efficacy endpoint
same,PASI-75 response rate (%),[2]; 15mg BID Group (N=54),18.52%
same,PASI-75 response rate (%),[2]; 30mg BID Group (N=54),25.93%
same,PASI-75 response rate (%),[2]; 60mg BID Group (N=54),46.30%
same,safety and tolerability,healthy Chinese subjects,good safety and tolerability
same,death events,[3]; 60 mg BID,No death events occurred
same,incidence of adverse reaction: diarrhea,[3]; 60 mg BID,11.4%
same,incidence of adverse reaction: dizziness,[3]; 60 mg BID,9.0%
same,incidence of adverse reaction: fatigue,[3]; 60 mg BID,8.5%
same,incidence of adverse reaction: headache,[3]; 60 mg BID,8.1%
same,incidence of adverse reaction: hypertriglyceridemia,[3]; 60 mg BID,5.7%
same,incidence of adverse reaction: increased stool frequency,[3]; 60 mg BID,10.4%
same,incidence of adverse reaction: nausea,[3]; 60 mg BID,23.7%
same,incidence of adverse reaction: vomiting,[3]; 60 mg BID,10.0%
same,severity of adverse events leading to discontinuation,[3]; 60 mg BID,Grade 1 or Grade 2
same,severity of the primary adverse reactions,[3]; 60 mg BID,Grade 1 or Grade 2
same,time of occurrence of gastrointestinal reactions and nervous system abnormalities,[3]; 60 mg BID,mostly occurred within the first two weeks of administration
same,tuberculosis activation (reactivation),"[3]; 105 T-SPOT positive subjects without active tuberculosis, 7 with previously confirmed pulmonary tuberculosis, 76 with history of tuberculosis, 1 with history of tuberculous pleurisy, by the end of the study",no instances of tuberculosis activation (reactivation) were observed
same,"HADS Anxiety Score, Mean","[3]; Week 16, 60 mg BID",2.3
same,"HADS Depression Score, Mean","[3]; Week 16, 60 mg BID",3.0
same,"HADS Anxiety Score, Mean","[3]; Week 56, 60 mg BID",3.1
same,"HADS Depression Score, Mean","[3]; Week 56, 60 mg BID",3.8
same,chest X-ray or CT examinations,[3]; any of the subjects,No clinical abnormalities related to tuberculosis were found
same,adverse events of depression or anxiety related to the investigational drug,[3]; [5],No adverse events of depression or anxiety related to the investigational drug were observed
same,difference between the experimental group and the placebo group in mean HADS anxiety scores and mean HADS depression scores,[3]; [5],no statistically significant differences (P>0.05)
same,occurrences of depression or suicidal ideation,[3]; [5],no occurrences of depression or suicidal ideation
same,drug-related serious adverse events,"[3]; core treatment period, 60 mg BID",No drug-related serious adverse events occurred
same,PASI-50 efficacy endpoint in subjects who had failed prior adalimumab treatment,"[3]; two subjects, 60 mg BID",both achieved the PASI-50 efficacy endpoint
same,BSA rate of change (%),"[3]; week 16, 60 mg BID, N=211",65.0%
same,Both PASI-75 and sPGA 0/1 and reduction of ≥2 points from baseline (%),"[3]; week 16, 60 mg BID, N=211",30.3%
same,"DLQI change from baseline, (mean)","[3]; week 16, 60 mg BID, N=211",5.38 points
same,PASI-50 (%),"[3]; week 16, 60 mg BID, N=211",82.7%
same,PASI-75 (%),"[3]; week 16, 60 mg BID, N=211",53.6%
same,PASI-90 (%),"[3]; week 16, 60 mg BID, N=211",32.5%
same,sPGA score of 0/1 and reduction of ≥2 points from baseline (%),"[3]; week 16, 60 mg BID, N=211",31.3%
